The values that follow come from BindingDB's records for patent US9796704 (SYMPHONY EVOLUTION, INC., 2017).

The structures appear in SMILES notation.

The target in assay [1] is Vascular endothelial growth factor receptor 2 (Homo sapiens, UniProt P35968). The experiment in a line: AlphaScreen Assay.
For assay [2], the target named is Receptor tyrosine-protein kinase erbB-2 (Homo sapiens, UniProt P04626). The experiment in a line: AlphaScreen Assay. Background: In Alpha technology, singlet oxygen from a donor bead excites a nearby acceptor bead.

The term IC50 denotes the midpoint of a concentration-inhibition curve. High values mean weaker potency in that assay, low ones greater potency in that assay.

Receptor tyrosine-protein kinase erbB-2, sequence (P04626 whole entry): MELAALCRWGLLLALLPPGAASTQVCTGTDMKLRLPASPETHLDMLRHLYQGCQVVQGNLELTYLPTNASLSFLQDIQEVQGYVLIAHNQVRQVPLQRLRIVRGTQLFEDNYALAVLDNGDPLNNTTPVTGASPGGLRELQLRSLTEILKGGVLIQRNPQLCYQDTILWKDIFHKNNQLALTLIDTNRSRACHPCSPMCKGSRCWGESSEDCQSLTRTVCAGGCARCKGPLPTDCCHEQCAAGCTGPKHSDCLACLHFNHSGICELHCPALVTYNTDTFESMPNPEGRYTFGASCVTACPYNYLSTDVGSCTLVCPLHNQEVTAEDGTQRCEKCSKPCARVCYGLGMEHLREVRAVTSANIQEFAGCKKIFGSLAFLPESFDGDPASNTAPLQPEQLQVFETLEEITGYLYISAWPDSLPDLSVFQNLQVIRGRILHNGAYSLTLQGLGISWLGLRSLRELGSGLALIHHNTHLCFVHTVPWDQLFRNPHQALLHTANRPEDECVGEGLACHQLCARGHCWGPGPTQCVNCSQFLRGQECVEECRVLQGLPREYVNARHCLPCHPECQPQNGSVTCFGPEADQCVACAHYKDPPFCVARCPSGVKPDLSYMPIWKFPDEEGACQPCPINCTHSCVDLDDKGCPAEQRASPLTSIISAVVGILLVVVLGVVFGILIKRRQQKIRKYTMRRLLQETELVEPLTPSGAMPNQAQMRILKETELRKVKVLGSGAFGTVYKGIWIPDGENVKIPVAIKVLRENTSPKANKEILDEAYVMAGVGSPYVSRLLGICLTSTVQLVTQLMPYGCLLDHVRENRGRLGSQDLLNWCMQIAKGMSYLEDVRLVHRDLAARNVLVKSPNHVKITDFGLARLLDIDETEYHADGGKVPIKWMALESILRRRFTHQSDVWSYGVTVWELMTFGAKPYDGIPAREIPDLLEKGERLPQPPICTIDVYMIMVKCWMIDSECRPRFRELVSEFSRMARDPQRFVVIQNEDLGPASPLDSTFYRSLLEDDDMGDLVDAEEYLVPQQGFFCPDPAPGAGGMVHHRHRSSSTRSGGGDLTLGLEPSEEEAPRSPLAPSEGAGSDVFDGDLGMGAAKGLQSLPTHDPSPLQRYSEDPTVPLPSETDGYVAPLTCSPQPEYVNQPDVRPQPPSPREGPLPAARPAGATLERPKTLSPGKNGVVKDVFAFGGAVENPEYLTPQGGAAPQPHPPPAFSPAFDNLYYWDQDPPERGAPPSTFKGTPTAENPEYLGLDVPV
Vascular endothelial growth factor receptor 2, sequence (P35968 whole entry): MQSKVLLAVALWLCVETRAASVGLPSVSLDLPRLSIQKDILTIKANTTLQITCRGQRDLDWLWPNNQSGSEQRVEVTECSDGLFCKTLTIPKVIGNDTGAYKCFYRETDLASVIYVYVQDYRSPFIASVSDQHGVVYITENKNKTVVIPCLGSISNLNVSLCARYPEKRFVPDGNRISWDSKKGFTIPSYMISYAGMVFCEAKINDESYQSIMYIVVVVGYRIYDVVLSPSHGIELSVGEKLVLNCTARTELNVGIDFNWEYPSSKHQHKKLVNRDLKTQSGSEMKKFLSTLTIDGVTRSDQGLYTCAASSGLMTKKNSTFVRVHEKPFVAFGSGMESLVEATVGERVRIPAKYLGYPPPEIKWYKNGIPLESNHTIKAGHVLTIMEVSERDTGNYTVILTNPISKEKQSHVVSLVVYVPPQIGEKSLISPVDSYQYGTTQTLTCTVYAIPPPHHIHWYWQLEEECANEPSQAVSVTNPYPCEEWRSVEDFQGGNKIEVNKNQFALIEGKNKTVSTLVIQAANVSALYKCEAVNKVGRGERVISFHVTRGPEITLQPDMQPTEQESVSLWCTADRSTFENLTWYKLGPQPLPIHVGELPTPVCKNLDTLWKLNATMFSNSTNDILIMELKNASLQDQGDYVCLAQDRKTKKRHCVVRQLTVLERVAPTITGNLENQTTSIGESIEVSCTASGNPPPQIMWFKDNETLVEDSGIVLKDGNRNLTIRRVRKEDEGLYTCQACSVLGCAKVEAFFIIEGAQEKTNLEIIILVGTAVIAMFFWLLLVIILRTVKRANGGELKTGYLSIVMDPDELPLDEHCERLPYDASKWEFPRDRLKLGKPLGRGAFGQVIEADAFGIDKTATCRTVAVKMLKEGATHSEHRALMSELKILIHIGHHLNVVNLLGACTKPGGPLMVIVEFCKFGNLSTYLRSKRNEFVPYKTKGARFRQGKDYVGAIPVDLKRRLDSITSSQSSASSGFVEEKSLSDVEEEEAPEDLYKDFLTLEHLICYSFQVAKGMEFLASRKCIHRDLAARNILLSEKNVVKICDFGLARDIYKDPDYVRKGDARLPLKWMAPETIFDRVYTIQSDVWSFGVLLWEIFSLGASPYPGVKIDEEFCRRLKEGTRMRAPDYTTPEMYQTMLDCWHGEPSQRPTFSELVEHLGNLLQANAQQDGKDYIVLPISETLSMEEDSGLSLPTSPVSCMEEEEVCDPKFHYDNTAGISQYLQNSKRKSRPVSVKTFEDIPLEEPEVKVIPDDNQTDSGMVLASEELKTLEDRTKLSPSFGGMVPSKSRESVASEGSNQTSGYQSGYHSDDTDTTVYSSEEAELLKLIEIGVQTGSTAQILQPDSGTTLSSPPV

Consider `CCN1CCCC1c1nc(COc2cc3ncnc(Nc4ccc(Cl)c(Cl)c4)c3cc2OC)no1` (centres undefined) [US9796704, Entry 264], for which the IC50 result in assay [1] was “in the range around 0.525 µM”; in assay [2] it was “in the range around 10.5 µM”.
In the same order, the values of `COc1cc2c(Nc3ccc(Cl)c(Cl)c3)ncnc2cc1OCc1csc(C2CCCNC2)n1` (centres undefined) [US9796704, Entry 251] are “in the range around 10.5 µM” and “in the range around 10.5 µM”.
In the same order, the values of `CCN1CCN(c2noc(COc3cc4ncnc(Nc5ccc(Cl)c(Cl)c5)c4cc3OC)n2)CC1` [US9796704, Entry 220] are “in the range around 0.525 µM” and “in the range around 0.525 µM”.
Take `COc1cc2c(Nc3ccc(Cl)c(Cl)c3)ncnc2cc1OCc1csc(C2CCCCN2C)n1` (centres undefined) [US9796704, Entry 250]: the IC50 result in assay [1] is “in the range around 0.525 µM”; in assay [2], “in the range around 10.5 µM”.
Regarding `COc1cc2c(Nc3ccc(Cl)c(Cl)c3)ncnc2cc1OCc1csc(N2CCNCC2)n1` [US9796704, Entry 262], the IC50 entry in assay [1] and in assay [2] was “in the range around 10.5 µM” each time.
As for `COc1cc2c(Nc3ccc(Cl)c(Cl)c3)ncnc2cc1OCC1CN(CCCc2ccccc2)CCO1` (centres undefined) [US9796704, Entry 271], the concentration for half-maximal inhibition (IC50) result is “in the range around 10.5 µM” in assay [1] and “in the range around 0.525 µM” in assay [2].
Consider `COc1cc2c(Nc3ccc(Cl)c(Cl)c3)ncnc2cc1OCC1CN(CCOCCO)CCO1` (centres undefined) [US9796704, Entry 275], for which the half-inhibitory concentration (IC50) entry in assay [1] and in assay [2] was “in the range around 10.5 µM” in each case.
Regarding `COc1cc2c(Nc3ccc(Cl)c(Cl)c3)ncnc2cc1OCc1noc(C2CCCN2)n1` (centres undefined) [US9796704, Entry 263], the IC50 entry in assay [1] and in assay [2] was “in the range around 10.5 µM” in each case.
In the case of `COc1cc2c(Nc3ccc(Cl)c(Cl)c3)ncnc2cc1OCc1csc(-c2ccc(Cl)cc2)n1` [US9796704, Entry 223], the IC50 entry in assay [1] and in assay [2] was “in the range around 0.525 µM” throughout.
As to `COc1cc2c(Nc3ccc(Cl)c(Cl)c3)ncnc2cc1OCc1csc(C2CCCCN2)n1` (centres undefined) [US9796704, Entry 249], the half-inhibitory concentration (IC50) entry in assay [1] is “in the range around 0.525 µM”; in assay [2], “in the range around 10.5 µM”.
Consider `COc1cc2c(Nc3ccc(Cl)c(Cl)c3)ncnc2cc1OCc1csc(CO)n1` [US9796704, Entry 246], for which the IC50 result in assay [1] and in assay [2] was “in the range around 0.525 µM” in each case.
As for `COc1cc2c(Nc3ccc(Cl)c(Cl)c3)ncnc2cc1OCC1CN(CCCCCC#N)CCO1` (centres undefined) [US9796704, Entry 277], the values for the IC50 entry in assay [1] and in assay [2] were “in the range around 10.5 µM” and “in the range around 0.525 µM”, respectively.
In the same order, the values of `COc1cc2c(Nc3ccc(Cl)c(Cl)c3)ncnc2cc1OCc1csc2ccc(Cl)cc12` [US9796704, Entry 225] are “in the range around 10.5 µM” and “in the range around 10.5 µM”.
The corresponding values for `CCN1CCCCC1c1nc(COc2cc3ncnc(Nc4ccc(Cl)c(Cl)c4)c3cc2OC)cs1` (centres undefined) [US9796704, Entry 253] are “in the range around 10.5 µM” and “in the range around 10.5 µM”.
The corresponding values for `CCN1CCCC(c2nc(COc3cc4ncnc(Nc5ccc(Cl)c(Cl)c5)c4cc3OC)cs2)C1` (centres undefined) [US9796704, Entry 254] are “in the range around 10.5 µM” and “in the range around 0.525 µM”.
For `COCCN1CCCOC(COc2cc3ncnc(Nc4ccc(Cl)c(Cl)c4)c3cc2OC)C1` (centres undefined) [US9796704, Entry 260], the half-inhibitory concentration (IC50) result in assay [1] is “in the range around 10.5 µM”; in assay [2], “in the range around 0.525 µM”.
The corresponding values for `COc1cc2c(Nc3ccc(Cl)c(Cl)c3)ncnc2cc1OCc1nccn1Cc1ccccc1` [US9796704, Entry 229] are “in the range around 0.525 µM” and “in the range around 0.525 µM”.
